Measurements from PubChem BioAssay AID687032 (Broad Institute, 2013).
Records with an inconclusive call do not appear.

System: IOSE-T80 viability, CellTiterGlo ATP luminescence, 96 h
Test: IOSE-T80 viability loss, PAX8-independent line – cell-based, cherry-pick, selectivity assay for PAX8 inhibitor project, dose response (AID 687032)

Row | SMILES | AC50
1 | COc1cc(OC)c2c(-c3cccc(-c4ccc(OC)c(F)c4)c3)cc(=O)oc2c1 | 10.7 µM
2 | C[C@@H]1CCCCO[C@@H](CN(C)C(=O)Nc2cccc3ccccc23)[C@H](C)CN([C@H](C)CO)C(=O)c2cc(NS(=O)(=O)c3ccc(F)cc3)ccc2O1 | < 0.26 µM
3 | COc1ccc(F)cc1-c1cc(NC=O)c2ncc(-c3cc(OC)c(OC)c(OC)c3)n2c1 | < 0.26 µM
4 | COc1ccc(S(=O)(=O)Nc2ccc3c(c2)C(=O)N([C@@H](C)CO)C[C@H](C)[C@@H](CN(C)Cc2ccc(C(F)(F)F)cc2)OCCCC[C@H](C)O3)cc1 | < 0.26 µM
5 | COc1ccc2c(COC(=O)CNC(=O)C34CC5CC(CC(C5)C3)C4)cc(=O)oc2c1 | < 0.26 µM
6 | CCC(c1nnnn1Cc1ccccc1)N1CCC(n2c(=O)[nH]c3ccccc32)CC1 (stereo unspecified) | < 0.26 µM
7 | O=C(C[C@H]1CC[C@H]2[C@@H](COC[C@@H](O)CN2Cc2ccc(Oc3ccccc3)cc2)O1)N1CCCCC1 | < 0.26 µM
8 | COc1ccccc1C#Cc1ccc2c(c1)O[C@H](CN(C)Cc1cccnc1)[C@H](C)CN([C@@H](C)CO)S2(=O)=O | 3.05 µM
9 | C[C@@H]1CN([C@H](C)CO)C(=O)c2cc(NC(=O)Nc3ccc(C(F)(F)F)cc3)ccc2O[C@@H](C)CCCCO[C@H]1CN(C)Cc1ccccc1 | < 0.26 µM
10 | Cc1ccc(Cl)cc1N1CCN(C(=O)c2noc(C)c2[N+](=O)[O-])CC1 | < 0.26 µM
11 | C[C@H](CO)N1C[C@H](C)[C@@H](CN(C)S(=O)(=O)c2ccc(Cl)cc2)OCCCC[C@H](C)Oc2ccc(NS(=O)(=O)c3ccc(Cl)cc3)cc2C1=O | < 0.26 µM
12 | COc1ccc(CCNc2nnc(Sc3nnnn3-c3ccccc3)s2)cc1OC | 8.84 µM
13 | COc1cc(OC)cc(C(=O)NCC(=O)OCC(=O)c2cc(C)n(Cc3ccco3)c2C)c1 | < 0.26 µM
14 | C[C@@H]1CN([C@@H](C)CO)C(=O)Cc2cc(NS(=O)(=O)c3ccc(Cl)cc3)ccc2O[C@H]1CN(C)Cc1ccc(Oc2ccccc2)cc1 | < 0.26 µM
15 | C[C@@H]1CN([C@H](C)CO)S(=O)(=O)c2ccc(C#CC3CCCC3)cc2O[C@@H]1CN(C)C(=O)Cc1ccncc1 | < 0.26 µM
16 | C=C(C)c1nc(Oc2ccccc2)nc(Oc2ccccc2)n1 | < 0.26 µM
17 | FC(F)(F)c1nnc2c(Sc3ccccn3)nc3ccccc3n12 | 8.85 µM
18 | COc1cc(-c2cnc3c(NC=O)cc(-c4ccccc4)cn23)cc(OC)c1OC | < 0.26 µM
19 | Cc1ccc(S(=O)(=O)N(C)C[C@@H]2Oc3cc(C#Cc4ccncc4)ccc3S(=O)(=O)N([C@H](C)CO)C[C@H]2C)cc1 | 3.05 µM
20 | C[C@H](CO)N1C[C@H](C)[C@H](CN(C)S(=O)(=O)c2ccc(Cl)cc2)OCCCC[C@H](C)Oc2ccc(NC(=O)Nc3ccc(C(F)(F)F)cc3)cc2C1=O | < 0.26 µM
21 | O=C(CCC(=O)c1ccccc1)NCCc1c[nH]c2ccccc12 | < 0.26 µM

Row | SMILES | AC50
22 | COc1ccc(-n2nc3c(N4CCC(C(=O)NCc5cccc(C)c5)CC4)nnc(C)c3c2C)cc1 | < 0.26 µM
23 | Cc1ccc2c(c1)c1c3n2CCN(CC(N)=O)C3CCC1 (stereo unspecified) | 10.2 µM
24 | C[C@H]1CCCCO[C@H](CN(C)Cc2ccc(C(F)(F)F)cc2)[C@@H](C)CN([C@@H](C)CO)C(=O)c2cc(NS(=O)(=O)c3ccc(Cl)cc3)ccc2O1 | < 0.26 µM
25 | CCN(CC)S(=O)(=O)c1cc(NC(=O)Cn2ncc(Cl)c(Cl)c2=O)ccc1C | < 0.26 µM
26 | C[C@@H]1CCCCO[C@H](CN(C)C(=O)Cc2ccccc2)[C@@H](C)CN([C@@H](C)CO)C(=O)c2cc(NC(=O)Nc3ccc(C(F)(F)F)cc3)ccc2O1 | < 0.26 µM
27 | C[C@H](CO)N1C[C@H](C)[C@@H](CN(C)CC2CCCCC2)Oc2c(NC(=O)CCCCCC(=O)Nc3ccccc3N)cccc2C1=O | < 0.26 µM
28 | O=C(NC12CC3CC(CC(C3)C1)C2)c1ccc([N+](=O)[O-])o1 | < 0.26 µM
29 | O=C(C(=O)N(Cc1ccccc1)Cc1ccccc1)c1c(-c2ccccc2)[nH]c2ccccc12 | < 0.26 µM
30 | COc1ccc(-c2nc3c(c(SCC(=O)Nc4cccc(O)c4)n2)Cc2c(CO)cnc(C)c2O3)cc1 | 8.55 µM
31 | CN1c2ccc(-c3cccc(F)c3)cc2[C@@H]2[C@@H](CCN2C(=O)Cc2ccccc2)[C@@H]1CO | < 0.26 µM
32 | O=C(c1cc([N+](=O)[O-])ccc1N1CCOCC1)N1CCN(c2ccccc2)CC1 | < 0.26 µM
33 | C[C@H](CO)N1C[C@H](C)[C@H](CN(C)Cc2ccc(C(F)(F)F)cc2)OCCCC[C@H](C)Oc2ccc(NS(=O)(=O)c3ccccc3)cc2C1=O | < 0.26 µM
34 | CCOc1ccc(NC(=O)Nc2cc(OCC(F)(F)F)cc(OCC(F)(F)F)c2)cc1 | 8.81 µM
35 | Cn1c(CCN2CCCC2)nc2cc(NS(=O)(=O)c3ccccc3)ccc21 | < 0.26 µM
36 | COc1cccc(-c2ccc([C@H]3[C@@H](CO)N(C(=O)Cc4ccccc4)[C@H]3C#N)cc2)c1 | < 0.26 µM
37 | C[C@@H]1CCCCO[C@@H](CN(C)Cc2ccc(Cl)c(Cl)c2)[C@H](C)CN([C@H](C)CO)C(=O)c2cc(NC(=O)Nc3ccc(C(F)(F)F)cc3)ccc2O1 | 35.6 µM
38 | C[C@@H]1CCCCO[C@H](CN(C)C(=O)C2CCCCC2)[C@@H](C)CN([C@@H](C)CO)C(=O)c2cc(NC(=O)Nc3ccc(F)cc3)ccc2O1 | < 0.26 µM
39 | C[C@@H]1CN([C@H](C)CO)C(=O)c2cc(NC(=O)Nc3ccccc3)ccc2O[C@@H](C)CCCCO[C@@H]1CN(C)Cc1ccc(C(F)(F)F)cc1 | < 0.26 µM
40 | CC1CN(CC(O)COC(c2ccccc2)c2ccccc2)CC(C)O1 (stereo unspecified) | < 0.26 µM
41 | COc1ccc(Cn2cc3c(-c4ccc(F)cc4)nnc-3c3cc(OC)c(OC)cc32)cc1 | 8.49 µM
